Assay: Stability test (accelerated experiment, sealed PE/aluminum foil bags, 40±2° C., humidity 75±5%)
Details: for Purity by HPLC / Appearance / XRPD: 40±2° C., humidity 75±5%
Procedure: X-ray powder diffractometer model: Rigaku D/max-2200 Cu target; operation condition: scanning speed, 4°/min, scanning step width, 0.01°.
High performance liquid chromatograph, Agilent1100; Chromatographic column: C18, 4.6 mm×250 mm; mobile phase, acetonitrile:0.1% phosphoric acid aqueous solution=65:35 (v:v); Detection wavelength: 240 nm; flow rate, 1.0 ml/min; Column temperature: 25° C.
The bags were electrothermally sealed, and then placed into aluminum foil bags which were also electrothermally sealed.

tenvermectin B [crystal form I of tenvermectin B]
Purity by HPLC (first month): 99.0 | Appearance (first month, cell wraps: White / crystalline / powder): White | XRPD (first month, cell wraps: crystal / form I): crystal | Purity by HPLC (initial data): 99.1 | XRPD (initial data, cell wraps over 2 lines: crystal / form I): crystal | Appearance (initial data, cell wraps over 3 lines: White / crystalline / powder): White | Purity by HPLC (second month): 99.1 | Appearance (second month, cell wraps: White / crystalline / powder): White | XRPD (second month, cell wraps: crystal / form I): crystal | Purity by HPLC (sixth month): 98.9 | Appearance (sixth month, cell wraps: White / crystalline / powder): White | XRPD (sixth month, cell wraps: crystal / form I): crystal | crystal transformation phenomenon in the stability experiment (stability experiment): does not occur | Purity by HPLC (third month): 98.9 | Appearance (third month, cell wraps: White / crystalline / powder): White | XRPD (third month, cell wraps: crystal / form I): crystal

Reference: patent US11912717B2 (Shenzhen Tenver Biopharm Co., Ltd., priority 2018, dated 2024)
